From PubChem BioAssay (NCI)
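Briefly, cells in 96-well plates were exposed to five compound concentrations for 48 h, and endpoints were estimated by linear interpolation. GI50 marks 50% less growth. At the TGI there is no net growth.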

Tested on: SW-620 colon
Assay: NCI tumour cell line growth inhibition, 48 h

Compound | GI50 [µM] | TGI [µM]
[F][Sn]([F])([c]1ccccc1)[c]1ccccc1 | 1.36 | 3.02
N#CC(C(=O)CCC(=O)Nc1cccc(C(F)(F)F)c1)c1ccc(Cl)cc1 (stereo not drawn) |  | > 100
Cc1cc(C(C)(C)C)cc(Cc2cc(C(C)(C)C)cc(Cc3cc(C(C)(C)C)cc(C)c3O)c2O)c1O |  | 17.4
COC(=O)/C(=C\c1ccc(N(CCC#N)CCC#N)cc1)NC(=O)c1cc([N+](=O)[O-])ccc1Cl |  | > 100
COC1=C(Br)C(=O)c2nc(C)ccc2C1=O |  | 21.7
O=C(CSC(c1ccccc1)c1ccccc1)N/N=C/c1ccco1 | 2.9 | > 11.6
COc1ccc2c3c(Nc4ccc(/C(C)=N/O)cc4)[nH]c4ccccc4c-3c(N=O)c2c1 | 1.36 | 2.85
N.N.NCCCCCCCCCN.O=C([O-])CC(=O)[O-].O=C([O-])CC(=O)[O-].[Pt+4].[Pt+4] | 66.4 | > 100
CCN(CC)c1cc2oc3cc(N)cc(=N)c-3nc2cc1C | 2.75 | 19.5
CC(=O)OC1C2CCC1C1C2C2(Cl)C(Cl)=C(Cl)C1(Cl)C2(Cl)Cl (stereo not drawn) |  | 28.4
CC(C(=O)n1c2ccccc2c2ccccc21)N(c1ccccc1)c1ccccc1 (stereo not drawn) |  | 36
CCOC(=O)Cn1c(=O)n(C)c(=O)c2c1ncn2Cc1ccccc1 |  | > 100
CCCCc1c2c(nc3c1CCC/C3=C\c1ccccc1)/C(=C/c1ccccc1)CCC2 |  | > 100
CC(C)(C)OC(=O)N1N=NC2C1C1CC(OCc3ccccc3)(OCc3ccccc3)C2O1 (stereo not drawn) |  | 47.6
O=C1CSC(c2ccc(-c3nc4ccccc4s3)cc2)=N1 | 50.5 | > 100
O=C1C(=O)N(c2cc(Cl)ccc2Cl)C(=O)C(=O)C1c1nc2ccccc2o1 |  | > 100
O=C(O)C12CC3(C(=O)O)CC(C(=O)O)(CC(C(=O)O)(C1)C3=O)C2=O |  | > 100
CCC(=O)Nc1ccc(N=NN(C)C)cc1 |  | > 100
C[C@H]1CCC/C=C/[C@@H]2C[C@H](O)C[C@H]2[C@H](O)[C@@H](SCC(O)CO)CC(=O)O1 (stereo partly drawn) | 30.9 | > 100
O=S1(=O)OCCOS(=O)(=O)C1Cl |  | > 100
COc1cc(C2C(C(=O)Nc3cc(F)c(F)cc3F)=C(C)NC(C)=C2C(=O)Nc2cc(F)c(F)cc2F)ccc1O |  | > 100
Nc1ccc2nc3n(c2c1)C(=O)c1ccccc1-3 |  | > 100
CCOc1ccccc1NC(=O)C(=O)Cc1nc2ccccc2s1 |  | > 100
CO/N=C(/C)c1cccc(Nc2cc(-c3ccccc3)nc3ccc(OC)cc23)c1 | 4.74 | 29.6
Cc1cccc(N=C2NC(=O)C(CC(=O)Nc3cccc(C)c3C)S2)c1 (stereo not drawn) |  | > 100
CN(C)CCSc1nccc(-c2cc3ccccc3s2)n1 |  | 36.7
Cc1nn(C(=O)c2ccc(Cl)cc2)c2c1C(c1ccc(O)cc1)SC(N)=N2 (stereo not drawn) |  | > 10
O=C(O)CSc1n[nH]c(Cc2ccccc2)n1 |  | > 100

Tested on: RPMI-8226 leukemia
Assay: NCI tumour cell line growth inhibition, 48 h

Compound | TGI [µM] | GI50 [µM]
Nc1ccc2[nH]cc(CCC(=O)O)c2c1 | > 100 | 
Cc1cccc(C(C)C)c1NC(=O)C(=O)C(C(=O)c1ccccc1F)C1OC(=O)c2ccccc21 (stereo not drawn) | 28.5 | 
Cc1ccc(Nc2nnc(-c3ccc4c(c3)OCO4)o2)c(C)c1 | > 100 | 
Cc1cccc(C)c1NC(=O)C(=O)CC(=O)c1cccc([N+](=O)[O-])c1 | > 100 | 
S=C1SC2=Nc3ccccc3CN2C2=NCCN12 | > 100 | > 100
O=C(O)CN(c1ccccc1)S(=O)(=O)c1ccc([N+](=O)[O-])cc1 | > 100 | 
CC1=C(C(=O)NNS(=O)(=O)c2ccc(C)cc2)CC(C(=O)NNS(=O)(=O)c2ccc(C)cc2)=C(C)N1 | > 100 | 
Cc1cc(C)n(-c2nnc3n2N=C(c2ccc(-c4ccccc4)cc2)CS3)n1 | > 100 | 3.18
Clc1cc(Cl)cc(Nc2ccc3cc(OCCCN4CCOCC4)ccc3n2)c1 | 7.08 | 2.2
[F][Sn]([F])([c]1ccccc1)[c]1ccccc1 | 3.79 | 1.11
N#CC(C(=O)CCC(=O)Nc1cccc(C(F)(F)F)c1)c1ccc(Cl)cc1 (stereo not drawn) | > 100 | 
Cc1cc(C(C)(C)C)cc(Cc2cc(C(C)(C)C)cc(Cc3cc(C(C)(C)C)cc(C)c3O)c2O)c1O | 6.44 | 
COC(=O)/C(=C\c1ccc(N(CCC#N)CCC#N)cc1)NC(=O)c1cc([N+](=O)[O-])ccc1Cl | > 100 | 
